Test system: 292921-168-R tumor spheroid viability
Assay: Anticancer human tumor 292921-168-R patient-derived pancreatic carcinoma cell line growth inhibition
Details: spheroids with HUVEC and MSC; for IC50: curve of first compound; for viability, T/C: stronger effect = lower value
How it was run: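 Complex spheroids of malignant cells with endothelial cells and mesenchymal stem cells; agents alone or combined, from near clinical Cmax (or 10 microM if unknown) down in half-log steps, 0.25% DMSO final.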

[1] = second compound 1 µM, first compound 0.00949 µM
[2] = second compound 1 µM, first compound 0.03 µM
[3] = second compound 1 µM, first compound 0.0949 µM
[4] = second compound 1 µM, first compound 0.3 µM
[5] = second compound 1 µM, first compound 0.949 µM
[6] = second compound 1 µM, first compound 3 µM
[7] = second compound 3.16 µM, first compound 0.00949 µM
[8] = second compound 3.16 µM, first compound 0.03 µM
[9] = second compound 3.16 µM, first compound 0.0949 µM
[10] = second compound 3.16 µM, first compound 0.3 µM
[11] = second compound 3.16 µM, first compound 0.949 µM
[12] = second compound 3.16 µM, first compound 3 µM
[13] = second compound 10 µM, first compound 0.00949 µM
[14] = second compound 10 µM, first compound 0.03 µM
[15] = second compound 10 µM, first compound 0.0949 µM
[16] = second compound 10 µM, first compound 0.3 µM
[17] = second compound 10 µM, first compound 0.949 µM
[18] = second compound 10 µM, first compound 3 µM
[19] = second compound 31.6 µM, first compound 0.00949 µM
[20] = second compound 31.6 µM, first compound 0.03 µM
[21] = second compound 31.6 µM, first compound 0.0949 µM
[22] = second compound 31.6 µM, first compound 0.3 µM
[23] = second compound 31.6 µM, first compound 0.949 µM
[24] = second compound 31.6 µM, first compound 3 µM
[25] = second compound 100 µM, first compound 0.00949 µM
[26] = second compound 100 µM, first compound 0.03 µM
[27] = second compound 100 µM, first compound 0.0949 µM
[28] = second compound 100 µM, first compound 0.3 µM
[29] = second compound 100 µM, first compound 0.949 µM
[30] = second compound 100 µM, first compound 3 µM
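Note: spheroids exposed to compounds for 7 days.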

Work on `CNCc1ccc(-c2cc(-c3nc(-c4ccc(S(=O)(=O)C(C)C)cc4)cnc3N)on2)cc1` + Cn1nnc2c(C(N)=O)ncn2c1=O yielded an IC50 (second compound 1 µM) of 205 nM, an IC50 (second compound 3.16 µM) of 212 nM and an IC50 (second compound 10 µM) of 214 nM. The IC50 (second compound 31.6 µM) was 178 nM, the IC50 (second compound 100 µM) was 136 nM and the viability, T/C [1] was 90%. It also gave a viability, T/C [2] of 85.7%, a viability, T/C [3] of 70.7% and a viability, T/C [4] of 37.7%. For the same compound, the viability, T/C [5] was 23.1%, the viability, T/C [6] was 9.35% and the viability, T/C [7] was 97.1%. For the same compound, the viability, T/C [8] was 92.8%, the viability, T/C [9] was 67.9% and the viability, T/C [10] was 41.9%. It also gave a viability, T/C [11] of 22%, a viability, T/C [12] of 12% and a viability, T/C [13] of 96.4%. For the same compound, the viability, T/C [14] was 88.6%, the viability, T/C [15] was 71.7% and the viability, T/C [16] was 40.2%. It also gave a viability, T/C [17] of 20.4%, a viability, T/C [18] of 9.2% and a viability, T/C [19] of 91.6%. For the same compound, the viability, T/C [20] was 79.2%, the viability, T/C [21] was 72.2% and the viability, T/C [22] was 31.6%. It also gave a viability, T/C [23] of 17.2%, a viability, T/C [24] of 8.61% and a viability, T/C [25] of 81.9%. The viability, T/C [26] was 82.3%, the viability, T/C [27] was 61.5% and the viability, T/C [28] was 23.9%. The viability, T/C [29] was 13.1% and the viability, T/C [30] was 7.83%.

With `Cc1sc2c(c1C)C(c1ccc(Cl)cc1)=NC(CC(=O)Nc1ccc(O)cc1)c1nnc(C)n1-2` (stereo not given) + Cn1nnc2c(C(N)=O)ncn2c1=O the IC50 (second compound 1 µM) was 2430 nM, the IC50 (second compound 3.16 µM) was 1980 nM and the IC50 (second compound 10 µM) was 1910 nM. It also gave an IC50 (second compound 31.6 µM) of 1700 nM, an IC50 (second compound 100 µM) of 904 nM and a viability, T/C [1] of 109%. The viability, T/C [2] was 111%, the viability, T/C [3] was 117% and the viability, T/C [4] was 99.9%. For the same compound, the viability, T/C [5] was 74.6%, the viability, T/C [6] was 44.5% and the viability, T/C [7] was 109%. The viability, T/C [8] was 117%, the viability, T/C [9] was 113% and the viability, T/C [10] was 111%. The viability, T/C [11] was 68.9%, the viability, T/C [12] was 39.2% and the viability, T/C [13] was 112%. The viability, T/C [14] was 115%, the viability, T/C [15] was 111% and the viability, T/C [16] was 89%. For the same compound, the viability, T/C [17] was 77.3%, the viability, T/C [18] was 33.9% and the viability, T/C [19] was 107%. The viability, T/C [20] was 114%, the viability, T/C [21] was 109% and the viability, T/C [22] was 102%. The viability, T/C [23] was 67.4%, the viability, T/C [24] was 32.9% and the viability, T/C [25] was 90.3%. It also gave a viability, T/C [26] of 106%, a viability, T/C [27] of 95.3% and a viability, T/C [28] of 89.1%. The viability, T/C [29] was 48.3% and the viability, T/C [30] was 16.1%.

`Cn1ncnc1[C@H]1c2n[nH]c(=O)c3cc(F)cc(c23)N[C@@H]1c1ccc(F)cc1` + Cn1nnc2c(C(N)=O)ncn2c1=O was tested, and the IC50 (second compound 1 µM) was 393 nM, the IC50 (second compound 3.16 µM) was 439 nM and the IC50 (second compound 10 µM) was 143 nM. For the same compound, the IC50 (second compound 31.6 µM) was 19 nM, the IC50 (second compound 100 µM) was < 9.49 nM and the viability, T/C [1] was 88.4%. For the same compound, the viability, T/C [2] was 81.3%, the viability, T/C [3] was 73.8% and the viability, T/C [4] was 58.8%. The viability, T/C [5] was 27.7%, the viability, T/C [6] was 9.76% and the viability, T/C [7] was 81.1%. It also gave a viability, T/C [8] of 82%, a viability, T/C [9] of 73% and a viability, T/C [10] of 59.5%. It also gave a viability, T/C [11] of 32%, a viability, T/C [12] of 11.1% and a viability, T/C [13] of 75.1%. For the same compound, the viability, T/C [14] was 68.1%, the viability, T/C [15] was 55.8% and the viability, T/C [16] was 39.2%. It also gave a viability, T/C [17] of 23.3%, a viability, T/C [18] of 9.97% and a viability, T/C [19] of 58.4%. For the same compound, the viability, T/C [20] was 44.4%, the viability, T/C [21] was 31.9% and the viability, T/C [22] was 24%. The viability, T/C [23] was 15.8%, the viability, T/C [24] was 8.83% and the viability, T/C [25] was 24.2%. The viability, T/C [26] was 19.3%, the viability, T/C [27] was 17.4% and the viability, T/C [28] was 14.6%. For the same compound, the viability, T/C [29] was 11.7% and the viability, T/C [30] was 7.45%.

For `O=C(c1cc(Cc2n[nH]c(=O)c3ccccc23)ccc1F)N1CCN(C(=O)C2CC2)CC1` + Cn1nnc2c(C(N)=O)ncn2c1=O, the IC50 (second compound 1 µM) was 12900 nM, the IC50 (second compound 3.16 µM) was 17700 nM and the IC50 (second compound 10 µM) was 8800 nM. For the same compound, the IC50 (second compound 31.6 µM) was 4050 nM, the IC50 (second compound 100 µM) was 573 nM and the viability, T/C [3] was 89.2%. For the same compound, the viability, T/C [4] was 93.1%, the viability, T/C [5] was 87% and the viability, T/C [6] was 86.1%. It also gave a viability, T/C (second compound 1 µM, first compound 9.49 µM) of 55.6%, a viability, T/C (second compound 1 µM, first compound 30 µM) of 34.2% and a viability, T/C [9] of 100%. The viability, T/C [10] was 101%, the viability, T/C [11] was 94% and the viability, T/C [12] was 93.6%. It also gave a viability, T/C (second compound 3.16 µM, first compound 9.49 µM) of 63.4%, a viability, T/C (second compound 3.16 µM, first compound 30 µM) of 38.5% and a viability, T/C [15] of 94.7%. The viability, T/C [16] was 92.4%, the viability, T/C [17] was 96.5% and the viability, T/C [18] was 82.2%. It also gave a viability, T/C (second compound 10 µM, first compound 9.49 µM) of 48%, a viability, T/C (second compound 10 µM, first compound 30 µM) of 28.3% and a viability, T/C [21] of 88%. For the same compound, the viability, T/C [22] was 86.6%, the viability, T/C [23] was 76% and the viability, T/C [24] was 56.8%. For the same compound, the viability, T/C (second compound 31.6 µM, first compound 9.49 µM) was 32.2%, the viability, T/C (second compound 31.6 µM, first compound 30 µM) was 21.4% and the viability, T/C [27] was 74.6%. For the same compound, the viability, T/C [28] was 58.2%, the viability, T/C [29] was 44% and the viability, T/C [30] was 29%. The viability, T/C (second compound 100 µM, first compound 9.49 µM) was 19.1% and the viability, T/C (second compound 100 µM, first compound 30 µM) was 17.2%.
